Tests used:
[1] = test system: UACC 903 cells; assay: BrdU ELISA cellular proliferation; assay type: cell-based, human; conditions: 24 hours
Description: Proliferation rate is measured using a BrdU ELISA kit (Roche Applied Sciences, Indianapolis, Ind.).
BrdUrd is used to label cells for 4-6 hours. At 15 μM concentration, ISC-4 and ISC-6 reduced UACC 903 cellular proliferative potential by ˜80-90% compared to controls. Results represent the average of 3 independent experiments; bars represent SEM. The average value is represented as the percentage of control DMSO treated cells.

[2] = test system: UACC 903 cells; assay: Apo-ONE caspase-3/7 apoptosis assay; assay type: cell-based, human; conditions: 24 hours
Description: Apoptosis rates are measured using an Apo-ONE Homogenous caspase-3/7 Assay kit (Promega Corporation, Madison, Wis.).
The isoselenocyanate compounds promote apoptosis in melanoma cells. […] The graphs in FIGS. 3A and 3B show fold increase in caspase-3/7 activity relative to DMSO vehicle treated cells on the x-axis. Results represent average of 3 independent experiments. Bars indicate SEM.

[3] = Toxicity assessments in nude mice (blood parameters, histology); assay type: in vivo
Source text: Animals are sacrificed by CO2 asphyxiation and blood collected from each animal in plasma separator tubes with lithium heparin (BD Microtainer, BD, Franklin Lakes, N.J.) following cardiac puncture and analyzed for AST (aspartate aminotransferase), ALT, (alanyl aminotransferase), alkaline phosphatase, glucose and creatinine to ascertain liver, heart, kidney and pancreas related toxicity. For morphological examination of blood cells, whole blood is collected in microtainer tubes containing K2EDTA (BD Microtainer, BD, Franklin Lakes, N.J.) and RBC, WBC, lymphocytes, monocytes, eosinophils, platelets, total hemoglobin and hematocrit percentage analyzed. Blood is also microscopically examined for segregates, polychromatin bodies, and smudge cells. A portion of liver, heart, kidney, spleen, intestine pancreas and adrenal from each animal is formalin fixed and paraffin-embedded to examine toxicity-related changes in cell or organ morphology by H&E staining.

[4] = test system: UACC 903 cells; assay: Topical application on melanoma tumor growth in vivo; set-up: species or system mice; conditions: topical daily
Description: Chemopreventive or chemotherapeutic effect of ISC-4 on cutaneous tumor development is measured by subcutaneous injection of 1 million UACC 903 cells in 0.2 ml of DMEM −10% FBS above both the left and right rib cages of 4- to 6-week old female athymic nude mice using 24 g needles. […] The dimensions of the developing tumors are measured alternate days using calipers and the sizes estimated in cubic millimeters. A minimum of 5 mice per group is used for the topical treatment.
Chemopreventive or chemotherapeutic effect of ISC-4 on cutaneous tumor development is measured by subcutaneous injection of 1 million UACC 903 cells in 0.2 ml of DMEM −10% FBS above both the left and right rib cages of 4- to 6-week old female athymic nude mice using 24 g needles. 24 hours later, animals were treated daily with ISC-4 (12.5-50 μM), PBITC (12.5-50 μM), or vehicle control (acetone) for 3-4 weeks. The dimensions of the developing tumors are measured alternate days using calipers and the sizes estimated in cubic millimeters. A minimum of 5 mice per group was used for the topical treatment.

[5] = test system: T-98-G; assay: MTS assay, glioblastoma cells; conditions: Homo sapiens, T98G, 24 h
[6] = test system: HT-1080; assay: MTS assay, fibrosarcoma cells; conditions: Homo sapiens, HT-1080, 24 h
[7] = test system: Caco-2; assay: MTS assay, colon cancer cells; conditions: Homo sapiens, Caco-2, 24 h
[8] = test system: MDA-MB-231; assay: MTS assay, breast cancer cells; conditions: Homo sapiens, MDA-MB-231, 24 h
[9] = test system: WM115 melanoma cells; assay: MTS cell viability assay, WM115; conditions: Homo sapiens, WM-115, 24 h
[10] = test system: PC-3; assay: MTS assay, prostate cancer cells; conditions: Homo sapiens, PC-3, 24 h
[11] = test system: 1205 Lu melanoma cells; assay: MTS cell viability assay, 1205 Lu; conditions: Homo sapiens, 24 h
[12] = test system: normal human fibroblasts (FF2441); assay: IC50 in normal human fibroblasts
[13] = test system: UACC 903 melanoma cells; assay: MTS cell viability assay, UACC 903; conditions: Homo sapiens, UACC-903, 24 h
[14] = test system: pAkt and downstream pPRAS40 in UACC 903 tumors; assay: Western blot analysis of excised tumors; conditions: day 13, 0.76 μmoles i.p. alternate days, versus DMSO or PBITC
[15] = test system: Akt signaling pathway in melanoma cell line WM115; assay: Western blot, Akt signaling pathway in WM115; conditions: FIG. 10B
[16] = test system: Akt signaling pathway in melanoma cell line 1205 Lu; assay: Western blot, Akt signaling pathway in 1205 Lu; conditions: FIG. 10A
[17] = test system: UACC 903 cells; assay: Cell cycle analysis (propidium iodide, FACScan); conditions: 24 hours
[18] = test system: UACC 903 tumors; assay: Proliferation/apoptosis rates in tumors (TUNEL, Ki-67)
[19] = test system: GFP tagged UACC 903 human melanoma cells; assay: Topical application on reconstructed human skin with melanoma cells; conditions: 12.5 and 25 μM topical; compared to DMSO treated or untreated skins
[20] = test system: UACC 903 melanoma cells; assay: Tumor development in nude mice, subcutaneous UACC 903, i.p. treatment; conditions: 0.76 μmoles (3 ppm selenium) i.p. thrice per week; day 24; doses 3× lower than isothiocyanates
[21] = test system: Akt signaling pathway; assay: Western blot of Akt signaling pathway in cultured melanoma cells (FIG. 9); conditions: 24 hours

[Se]=C=NCCCCc1ccccc1 [ISC-4, Phenylbutyl Isoselenocyanate]
proliferative potential with increasing concentrations ([1]; 5, 10, 15 μM): decreased proliferative potential | fold more effective than PBITC or PHITC at inhibiting cellular proliferation ([1]; 5-15 μM): ~2 fold | cellular apoptosis with increasing concentrations (caspase-3/7 activity, words) ([2]; 5, 10, 15 μM): increase cellular apoptosis | fold more effective than PBITC at inducing apoptosis ([2]; caspase-3/7 activity, 5-15 μM): ~2 fold | blood SGOT, SGPT, alkaline phosphatase, glucose and creatinine ([3]; 0.76 μmoles i.p. 3 times per week for 3 weeks, compared to vehicle DMSO): did not alter parameters | histological examination of vital organ sections ([3]; hematoxylin and eosin stained, including the liver): did not significantly change cell morphology or organ structure | basal urea nitrogen (BUN), creatinine and glucose levels ([3]; treated versus control animals): not significantly different | systemic toxicity by body weight ([4]; 0.063-0.19 μmoles equivalent to 0.25-0.75 ppm): no systemic toxicity | tumor size ([4]; 0.063-0.19 μmoles equivalent to 0.25-0.75 ppm, versus vehicle or PBITC): decreased tumor size | systemic toxicity by body weight ([4]; 12.5-50 μM): no systemic toxicity | reduction of melanoma tumor development ([4]; 12.5-50 μM, compared to PBITC or vehicle control): ~50% | IC50 [5]: 27 ± 1 µM | IC50 [6]: 11 ± 1 µM | IC50 [7]: 12 ± 3 µM | IC50 [8]: 21 µM | IC50 [9]: 7 µM | IC50 [10]: 19 ± 1 µM | IC50 [11]: 11 µM | fold greater sensitivity of melanoma cells (UACC 903) than normal fibroblasts (FF2441) ([12]; 24 hours): 3 fold | IC50 ([12]; Homo sapiens, FF2441, 24 h, read-out: IC50 (drug concentration required to kill fibroblasts)): 37.5 µM | IC50 [13]: 12 ± 3 µM | expression of downstream PRAS40 (phosphorylated) in tumor lysates ([14]; p<0.001): significantly decreased expression | expression of phosphorylated (active) Akt in tumor lysates ([14]; p<0.05): significantly decreased expression | apoptosis indicated by cleaved PARP protein levels [15]: causes significant apoptosis | apoptosis indicated by cleaved PARP protein levels [16]: causes significant apoptosis | G0/G1 cell population ([17]; 5 μM): 59.4 | G2/M cell population ([17]; 5 μM): 16.3 | S cell population ([17]; 5 μM): 24.3 | subG0/G1 cell population ([17]; 5 μM): 2.9 | G0/G1 cell population ([17]; 10 μM): 41.6 | G2/M cell population ([17]; 10 μM): 29.4 | S cell population ([17]; 10 μM): 29.0 | subG0/G1 cell population ([17]; 10 μM): 12.3 | G0/G1 cell population ([17]; 15 μM): 35.5 | G2/M cell population ([17]; 15 μM): 28.0 | S cell population ([17]; 15 μM): 36.5 | subG0/G1 cell population ([17]; 15 μM): 22.8 | proliferating tumor cells (Ki-67, words) ([18]; compared to PBITC, size and time matched tumors): slightly fewer proliferating tumor cells | TUNEL positive (apoptotic) cells in tumors, fold versus DMSO or PBITC ([18]; tumors harvested at day 11 and 13, 3 ppm selenium i.p.): ~3 fold | decrease in tumor area occupied by melanoma cells [19]: ~80% | melanoma tumor volume [20]: reduce tumor volume | concentration completely inhibiting the Akt3 pathway (Western blot) [21]: 10 µM | level of apoptosis (cleaved PARP) versus PBITC [21]: higher level of apoptosis
